# Measured values taken from PubChem BioAssay AID200 (DTP/NCI, 2004).
# Several values for one entry are separate records, joined by “and”; a condition that tells them apart may be missing. Identical values can stand only once. Toxic doses and inconclusive results are not listed. Where a SMILES comes first, the peptide text is derived from it. [ ]: non-standard residue; d: D form. The star is where a group is joined. Cbz = O=C(OCc1ccccc1)*; Nva = CCC[CH](N)C(=O)O
# System: B6C3F1 mice, B16 melanoma ip, median survival T/C
# Experiment: NCI In Vivo Anticancer Drug Screen. Data for tumor model B16 Melanoma (intraperitoneal) in B6C3F1 mice
# Settings: endpoint: median survival time, schedule: Q01DX009 (ip), higher = longer survival
# Summary of the method: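 Mice bearing transplanted tumor were dosed with compound or vehicle, and survival was recorded. Activity is expressed as the treated-group measurement (T) divided by the vehicle control measurement (C).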
# [1] = dose: 100.0 mg/kg/injection, vehicle: saline with Tween-80
# [2] = dose: 200.0 mg/kg/injection, vehicle: saline with Tween-80
# [3] = dose: 400.0 mg/kg/injection, vehicle: saline with Tween-80
# [4] = dose: 100.0 mg/kg/injection, vehicle: Klucel (hydroxypropylcellulose) (HPC)
# [5] = dose: 200.0 mg/kg/injection, vehicle: Klucel (hydroxypropylcellulose) (HPC)
# [6] = dose: 400.0 mg/kg/injection, vehicle: Klucel (hydroxypropylcellulose) (HPC)
# [7] = dose: 25.0 mg/kg/injection, vehicle: Klucel (hydroxypropylcellulose) (HPC)
# [8] = dose: 50.0 mg/kg/injection, vehicle: Klucel (hydroxypropylcellulose) (HPC)
# [9] = dose: 50.0 mg/kg/injection, vehicle: saline
# [10] = dose: 100.0 mg/kg/injection, vehicle: saline
# [11] = dose: 200.0 mg/kg/injection, vehicle: saline
# [12] = dose: 400.0 mg/kg/injection, vehicle: saline
# [13] = dose: 12.5 mg/kg/injection, vehicle: saline with Tween-80
# [14] = dose: 25.0 mg/kg/injection, vehicle: saline with Tween-80
# [15] = dose: 50.0 mg/kg/injection, vehicle: saline with Tween-80
# [16] = dose: 3.12 mg/kg/injection, vehicle: saline
# [17] = dose: 6.25 mg/kg/injection, vehicle: saline
# [18] = dose: 12.5 mg/kg/injection, vehicle: saline
# [19] = dose: 25.0 mg/kg/injection, vehicle: saline
# [20] = dose: 1.56 mg/kg/injection, vehicle: saline with Tween-80
# [21] = dose: 3.12 mg/kg/injection, vehicle: saline with Tween-80
# [22] = dose: 6.25 mg/kg/injection, vehicle: saline with Tween-80
# [23] = dose: 12.5 mg/kg/injection, vehicle: Klucel (hydroxypropylcellulose) (HPC)
structure (smiles),measurement,setting,value
Cc1ccc(NN=O)nc1,T/C,"dose: 0.75 mg/kg/injection, vehicle: water",114 % of control
same,T/C,"dose: 1.5 mg/kg/injection, vehicle: water",120 % of control
same,T/C,"dose: 1.56 mg/kg/injection, vehicle: water",112 % of control
same,T/C,"dose: 3.0 mg/kg/injection, vehicle: water",120 % of control
same,T/C,"dose: 6.0 mg/kg/injection, vehicle: water",124 % of control
CCN(CC)c1ccc(N=Nc2ccc(C)cc2)cc1,T/C,[1],96 % of control
same,T/C,[2],93 % of control
same,T/C,[3],96 % of control
CCCC(NC(=O)OCc1ccccc1)C(=O)NC(Cc1ccccc1)C(N)=O (stereo not drawn) (Cbz-[Nva]-Phe-NH2; configuration not given here),T/C,[4],101 % of control
same,T/C,[5],91 % of control
same,T/C,[6],89 % of control
O=C1N[C@H]2[C@H](CS[C@H]2CCCCC(=O)N(CCP(c2ccccc2)c2ccccc2)CCP(c2ccccc2)c2ccccc2)N1,T/C,[7],110 % of control and 97 % of control
same,T/C,[8],109 % of control and 101 % of control
same,T/C,[4],105 % of control
same,T/C,[5],113 % of control
same,T/C,[6],101 % of control
NCCC(=O)NC(Cc1cnc[nH]1)C(=O)O (stereo not drawn),T/C,[9],102 % of control
same,T/C,[10],104 % of control
same,T/C,[11],103 % of control
same,T/C,[12],104 % of control
CCOC(=O)c1ccc(NN=NCCF)cc1,T/C,"dose: 3.0 mg/kg/injection, vehicle: distilled water + Tween-80",123 % of control and 102 % of control
same,T/C,"dose: 3.12 mg/kg/injection, vehicle: distilled water + Tween-80",123 % of control
same,T/C,"dose: 6.0 mg/kg/injection, vehicle: distilled water + Tween-80",112 % of control and 98 % of control
same,T/C,"dose: 12.0 mg/kg/injection, vehicle: distilled water + Tween-80",87 % of control and 103 % of control
same,T/C,"dose: 12.5 mg/kg/injection, vehicle: distilled water + Tween-80",155 % of control
same,T/C,"dose: 24.0 mg/kg/injection, vehicle: distilled water + Tween-80",108 % of control and 101 % of control
same,T/C,"dose: 25.0 mg/kg/injection, vehicle: distilled water + Tween-80",198 % of control
same,T/C,"dose: 48.0 mg/kg/injection, vehicle: distilled water + Tween-80",96 % of control and 102 % of control
CN=S(=O)(OCCCCCOS(=O)(=NC)c1ccc(C)cc1)c1ccc(C)cc1 (stereo not drawn),T/C,[13],94 % of control
same,T/C,[14],104 % of control
same,T/C,[15],113 % of control
same,T/C,[1],123 % of control
[CH3][Sn]([CH3])([Cl])[S]CCN,T/C,[16],109 % of control and 102 % of control
same,T/C,[17],95 % of control and 96 % of control
same,T/C,[18],96 % of control and 102 % of control
same,T/C,[19],100 % of control
same,T/C,[9],97 % of control
C[CH2][Sn]([CH2]C)([CH2]C(=O)OC)[CH2]C(=O)OC,T/C,[20],95 % of control
same,T/C,[21],107 % of control
same,T/C,[22],90 % of control
CCOC(=O)N1CCN(CCCCCOc2ccccc2C2CCCCC2)CC1,T/C,[13],108 % of control
same,T/C,[14],96 % of control
same,T/C,[15],87 % of control
O=C1SC(c2ccccc2)=S=C1c1ccccc1,T/C,[7],92 % of control
same,T/C,[8],97 % of control
same,T/C,[4],98 % of control
same,T/C,[5],93 % of control
CCCC(C(CC)CNC(=O)Nc1cccc2ccccc12)N(C)C(=O)Nc1cccc2ccccc12 (stereo not drawn),T/C,[15],99 % of control
same,T/C,[1],95 % of control
same,T/C,[2],102 % of control
same,T/C,[3],95 % of control
NCCc1ccc(O)cc1,T/C,[9],96 % of control
same,T/C,[10],96 % of control
same,T/C,[11],96 % of control
same,T/C,[12],104 % of control
O=c1s[se]c2ccccc12,T/C,"dose: 1.56 mg/kg/injection, vehicle: Klucel (hydroxypropylcellulose) (HPC)",94 % of control
same,T/C,[20],104 % of control
same,T/C,"dose: 3.12 mg/kg/injection, vehicle: Klucel (hydroxypropylcellulose) (HPC)",108 % of control
same,T/C,[21],114 % of control
same,T/C,"dose: 6.25 mg/kg/injection, vehicle: Klucel (hydroxypropylcellulose) (HPC)",97 % of control
same,T/C,[22],87 % of control
same,T/C,[23],98 % of control
same,T/C,[13],103 % of control
same,T/C,[7],94 % of control
same,T/C,[14],105 % of control
same,T/C,[15],92 % of control
O=c1[nH]cc(O)c(=O)[nH]1,T/C,[8],102 % of control
same,T/C,[4],96 % of control
same,T/C,[5],103 % of control
C[Si](C)(C)O/C=C1/CCOC1=O,T/C,[23],104 % of control
same,T/C,[7],93 % of control
same,T/C,[8],95 % of control
same,T/C,[4],95 % of control
same,T/C,[5],106 % of control
CCOC(=O)c1c[nH]c2oc(/C=N/N3CC(CN4CCOCC4)OC3=O)cc2c1=O (stereo not drawn),T/C,[18],112 % of control
same,T/C,[19],118 % of control
same,T/C,[9],117 % of control
CCC(C(=O)O)C(=O)O.[NH2-].[NH2-].[Pt+2],T/C,"dose: 1.56 mg/kg/injection, vehicle: saline",117 % of control
same,T/C,[16],102 % of control
same,T/C,[17],102 % of control
same,T/C,[19],154 % of control
same,T/C,[9],102 % of control
CC(C)NC(=O)OCc1c(COC(=O)NC(C)C)c(-c2ccc(Cl)c(Cl)c2)n2c1CC(OC(=O)CN(C)C)C2 (stereo not drawn),T/C,"dose: 10.0 mg/kg/injection, vehicle: distilled water + Tween-80",152 % of control and 153 % of control
same,T/C,"dose: 20.0 mg/kg/injection, vehicle: distilled water + Tween-80",152 % of control and 168 % of control
same,T/C,"dose: 40.0 mg/kg/injection, vehicle: distilled water + Tween-80",174 % of control and 190 % of control
[N-]=[N+]=CC(=O)CCC(NC(=O)OCc1ccccc1)C(=O)OCc1ccccc1 (stereo not drawn),T/C,[7],93 % of control
same,T/C,[8],96 % of control
CN(C)c1ccc2c(NCCCCCCNc3ccnc4cc(N(C)C)ccc34)ccnc2c1,T/C,"dose: 1.56 mg/kg/injection, vehicle: distilled water + alcohol",94 % of control
same,T/C,"dose: 3.12 mg/kg/injection, vehicle: distilled water + alcohol",92 % of control
same,T/C,"dose: 6.25 mg/kg/injection, vehicle: distilled water + alcohol",106 % of control
same,T/C,"dose: 12.5 mg/kg/injection, vehicle: distilled water + alcohol",116 % of control
same,T/C,"dose: 25.0 mg/kg/injection, vehicle: distilled water + alcohol",112 % of control
c1nc(N2CC2)c2cnn(C3CCCCO3)c2n1 (stereo not drawn),T/C,[15],91 % of control
same,T/C,[1],93 % of control
same,T/C,[2],91 % of control
CC(C)(O)[C@H]1[C@@H]2OC(=O)[C@H]1[C@]1(O)C[C@H]3OC34C(=O)O[C@H]2[C@@]41C (stereo partly drawn) (tested in a mixture with another compound),T/C,"dose: 0.25 mg/kg/injection, vehicle: Klucel (hydroxypropylcellulose) (HPC)",110 % of control
same,T/C,"dose: 0.5 mg/kg/injection, vehicle: Klucel (hydroxypropylcellulose) (HPC)",99 % of control
same,T/C,"dose: 1.0 mg/kg/injection, vehicle: Klucel (hydroxypropylcellulose) (HPC)",108 % of control
same,T/C,"dose: 2.0 mg/kg/injection, vehicle: Klucel (hydroxypropylcellulose) (HPC)",111 % of control
NC1=NC(=O)N2CC12 (stereo not drawn),T/C,[18],105 % of control
same,T/C,[19],95 % of control
same,T/C,[9],95 % of control
same,T/C,[10],89 % of control
O=C1NC(=O)NC(C(=O)O)N1,T/C,"dose: 0.75 mg/kg/injection, vehicle: Klucel (hydroxypropylcellulose) (HPC)",108 % of control
same,T/C,"dose: 1.5 mg/kg/injection, vehicle: Klucel (hydroxypropylcellulose) (HPC)",106 % of control
same,T/C,"dose: 3.0 mg/kg/injection, vehicle: Klucel (hydroxypropylcellulose) (HPC)",116 % of control
same,T/C,"dose: 6.0 mg/kg/injection, vehicle: Klucel (hydroxypropylcellulose) (HPC)",106 % of control
same,T/C,"dose: 12.0 mg/kg/injection, vehicle: Klucel (hydroxypropylcellulose) (HPC)",107 % of control
